Reference: the NIST ThermoML archive (doi:10.1016/j.jct.2013.03.013)
Values joined by “and” are separate entries in the source; they are usually repeats but may differ in a detail not shown here. Identical values can stand only once.

Conditions: Liquid, Vibrating wire viscometry

FCC(F)(F)F [1,1,1,2-tetrafluoroethane]
viscosity
Conditions	1000 kPa	2000 kPa	3000 kPa	5000 kPa	10000 kPa	15000 kPa	20000 kPa	25000 kPa	30000 kPa
253.14 K	0.3564 mPa·s	–	–	0.3729 mPa·s	0.3937 mPa·s	0.4141 mPa·s	0.4329 mPa·s	0.4553 mPa·s	0.4776 mPa·s
253.16 K	–	–	0.3626 mPa·s	–	0.3914 mPa·s	–	–	–	–
273.15 K	0.2713 mPa·s	–	0.2791 mPa·s	0.2873 mPa·s	0.3052 mPa·s and 0.3031 mPa·s	0.3211 mPa·s	0.3387 mPa·s	0.357 mPa·s	0.3759 mPa·s
293.15 K	0.2115 mPa·s	–	0.2177 mPa·s	0.2227 mPa·s	0.2398 mPa·s and 0.2412 mPa·s	0.2556 mPa·s	0.2725 mPa·s	0.287 mPa·s	0.3023 mPa·s
313.14 K	–	0.1653 mPa·s	0.1693 mPa·s	0.1758 mPa·s	0.1918 mPa·s and 0.1929 mPa·s	0.2068 mPa·s	0.2228 mPa·s	0.236 mPa·s	0.2501 mPa·s
333.16 K	–	0.1247 mPa·s	0.1296 mPa·s	0.1373 mPa·s	0.1537 mPa·s and 0.1543 mPa·s	0.1703 mPa·s	0.1839 mPa·s	0.1966 mPa·s	0.2089 mPa·s
353.15 K	–	–	–	0.1034 mPa·s	0.1246 mPa·s	–	–	–	–
353.16 K	–	–	0.0916 mPa·s	0.1032 mPa·s	0.124 mPa·s	0.1391 mPa·s	0.1535 mPa·s	0.1657 mPa·s	0.1779 mPa·s
